From PMC8110993, “Structure and antimicrobial activity of NCR169, a nodule-specific cysteine-rich peptide of Medicago truncatula” (Scientific Reports, 2021)
Read-outs that look alike come from different tables or passages of the source. Where a SMILES comes first, the peptide text is derived from it. Bridges are numbered along the chain shown (N, C = ends). Where no end group is shown, it is not given here.

How the values were obtained:
[1] = assay type: physicochemical
Protocol: To confirm it, we examined the solubility of NCR169 in various solvents, HEPES (salt-free), HEPES with salt (50 to 200 mM NaCl or KCl), and PBS. […] In other words, the disulfide bonds of NCR169 contribute to its solubility.
Supplementary Figure S3. Solubility assessment of NCR169. The same amount of NCR169 was dissolved in various solvents. After incubation at room temperature for 1 h, the solution was centrifuged at 20,000 × g and the supernatant was analyzed by Tricine-SDS-PAGE. […]

[2] = Liposome sedimentation (binding) assay
Protocol: (§1) Figure 3 NCR169 binds to the bacterial phospholipid. (A) Circular dichroism (CD) spectra of NCR169 peptides (NCR169-ox1 and -ox2). NCR169 peptides (20 μM) were dissolved in the following solvents: water (No additives), 2 mM DMPC liposomes, 2 mM DMPG liposomes or 30% 2,2,2-trifluoroethanol (TFE). (B) The results of liposome binding assays. The NCR169 peptide (20 μM) was incubated with buffer (No lipid), 2 mM DMPC liposomes, or 2 mM DMPG liposomes. After incubation at room temperature for 30 min, the mixture was ultra-centrifuged at 200,000×g. The supernatant and pellet fractions were analyzed by Tricine-SDS-PAGE. The no lipid sample before ultra-centrifugation was used as the input.
(§2) The phospholipids DMPC and DMPG were purchased from Avanti Polar Lipids (Alabaster, AL, USA). An appropriate amount of phospholipid was dissolved in chloroform and dried under vacuum for 1 h. The lipid film was suspended in water, vortexed, and sonicated for 30 min to form the liposomes.
(§3) The assay was carried out as described previously. Briefly, equal volumes of NCR169 peptide (20 μM) and liposomes (2 mM) were mixed in assay buffer (20 mM HEPES, 150 mM NaCl, pH 7.0) and incubated for 30 min at room temperature, followed by ultracentrifugation at 200,000×g for 15 min at 20 °C. After centrifugation, the supernatant was collected, and the pellet was dissolved in the same volume of assay buffer containing 0.2% Triton X-100. The supernatant and pellet fractions were subjected to Tricine-SDS-PAGE, and peptides were detected by Coomassie Brilliant Blue staining.
Supplementary Figure S11. NCR 169 M binds to the bacterial phospholipid. (A) Circular dichroism (CD) spectra of NCR169M (20 μM) in water (No additive), 2 mM dimyristoylphosphatidylcholine (DMPC) liposomes, 2 mM dimyristoylphosphatidylglycerol (DMPG) liposomes or 30% 2,2,2-trifluoroethanol (TFE). (B) The result of liposome binding assay. NCR169M (20 μM) was incubated with buffer (No lipid),2 mM DMPC liposomes, or 2 mM DMPG liposomes . After incubation at room temperature for 30 min, the mixture was ultra-centrifuged at 200,000 × g. The supernatant and pellet fractions were analyzed by Tricine-SDS-PAGE. The no lipidsample before ultra-centrifugation was used as the input.
(also on this page, place not known: [θ] (103 deg cm2 dmol-1) markerkDa input No lipid sup ppt sup ppt sup ppt NCR169M lipid), DMPC 2 DMPG liposomes. lipid sample)
(1 picture or pasted object on this page, not shown here)
Supplementary Figure S12. The results of liposome binding assays. (A) NCR169-derived peptide (10 μM) was incubated with buffer (No lipid), 1 mM DMPC liposomes, 1 mM DMPG liposomes. After incubation at room temperature for 30 min, the mixture was ultra-centrifuged at 200,000 × g. The supernatant and pellet fractions were analyzed by Tricine-SDS-PAGE. The no lipid sample before ultra-centrifugation was used as the input. Arrows indicate weak bands. (B) […]

[3] = assay type: physicochemical; settings: pH 2.2
Protocol: We further measured the circular dichroism (CD) spectra of NCR169-ox1 and -ox2 under various pH conditions to confirm their structural stability against pH (Supplementary Fig. S4). […] Because acidic pH is preferable for amide proton detection in NMR experiments, we performed the following solution NMR study at lower pH.
CD spectra were recorded within a wavelength range of 270–195 nm using a JASCO J-820 spectropolarimeter (JASCO International Co., Ltd., Tokyo, Japan). A quartz cell with a light path length of 1 mm was used for the measurements. The sample temperature was maintained at 25 °C during the measurements.
Supplementary Figure S4. Circular dichroism (CD) spectra of NCR169-ox1 and -ox2 under
various pH conditions. The signal reflectingβ-sheet structure (218 nm) was hardly changed.

[4] = Liposome sedimentation (binding) assay; settings: peptide 20 μM, 2 mM DMPC liposomes, 20 mM HEPES, 150 mM NaCl, pH 7.0, 30 min room temperature, 200,000×g, supernatant and pellet by Tricine-SDS-PAGE
Protocol: as §1, §2
as §3, with “After centrifugation, the supernatant was collected, and the pellet was dissolved in the same volume of assay buffer containing 0.2% Triton X-100.” left out

Escherichia coli K-12 = assay type: cell-based; settings: for IC100: E. coli K-12, drop plate method, 2 h treatment at room temperature, 5 mM HEPES-KOH pH 7.0
Protocol: (§4) Antimicrobial tests were performed using the drop plate method[12],[47]. Bacterial strains in the logarithmic phase (OD600 = 0.5–0.8) were diluted with 5 mM HEPES–KOH (pH 7.0) to a bacterial culture value of 1 × 10^6 CFU/mL. At OD600 = 0.1, the concentrations of S. meliloti and E. coli K-12 cells were 6.4 × 10^6 CFU/mL and 5.2 × 10^7 CFU/mL, respectively. Equal volumes of bacteria (S. meliloti or E. coli K-12) and NCR169 peptide or PMB were mixed and incubated at room temperature for 2 h. For antimicrobial tests against S. meliloti, 10 μL of each serially diluted mixture was spotted on MHB plates with 2.5 mM MgCl2, and 2.5 mM CaCl2, followed by incubation at 30 °C for 40 h. For antimicrobial tests against E. coli K-12, 10 μL of each mixture was spotted on Mueller Hinton Broth (MHB; MilliporeSigma, Burlington, MA, USA) plates followed by incubation at 30 °C for 13 h.
(§5) To estimate survival rate, the peptide-treated bacterial mixtures were serially diluted with the buffer before spotting on the plate. Bacterial survival rates were calculated using the colony numbers of each bacterial strain with or without peptide treatment. All experiments were repeated at least four times.
(§6) Supplementary Table S2. Antimicrobial activities of NCR169 peptides against E. coliK-12 and S. meliloti.
(§7) Peptide IC50 (μM)* IC100 (μM)
(§8) E. coli K-12 S. meliloti E. coli K-12 S. meliloti
(§9) IC50: 50% inhibitory concentration (Calculated using “Dose-response curve” fitting)

Sinorhizobium meliloti = assay type: cell-based; settings: for IC100: drop plate method, 2 h treatment at room temperature, 5 mM HEPES-KOH pH 7.0
Protocol: as §4, §5, §6, §7, §8, §9

[5] = peptide 20 μM, 2 mM DMPG liposomes, 20 mM HEPES, 150 mM NaCl, pH 7.0, 30 min room temperature, 200,000×g, supernatant and pellet by Tricine-SDS-PAGE
[6] = NCR169-derived peptide 10 μM, 1 mM DMPG liposomes, 30 min room temperature, 200,000×g, Tricine-SDS-PAGE

Row | Compound | Solubility in various solvents [1] | Binding to DMPG liposomes [2, 5] | Structural stability against pH (CD spectra) [3] | Binding to DMPC liposomes [4] | IC100 (Escherichia coli K-12) [µM] | IC50 (Escherichia coli K-12; K-12, 2 h, pH 7) [nM] | IC50 (Sinorhizobium meliloti; 2 h, pH 7) [nM] | IC100 (Sinorhizobium meliloti; S. meliloti) [µM] | Binding to DMPG liposomes [2, 6] | Antimicrobial activity (in words) (Escherichia coli K-12; E. coli K-12, various peptide concentrations) | Antimicrobial activity (in words) (Sinorhizobium meliloti; S. meliloti, various peptide concentrations) | IC50 (Escherichia coli K-12; E. coli K-12, 1 × 10^6 CFU/mL in 5 mM HEPES-KOH pH 7.0, 2 h at room temperature, spotted on MHB plates, 30 °C 13 h, survival rate from colony numbers, dose-response curve fitting, repeated at least four times, read-out: IC50 (50% inhibitory concentration)) [nM] | IC50 (Sinorhizobium meliloti; S. meliloti, 1 × 10^6 CFU/mL in 5 mM HEPES-KOH pH 7.0, 2 h at room temperature, spotted on MHB plates with 2.5 mM MgCl2 and 2.5 mM CaCl2, 30 °C 40 h, dose-response curve fitting, repeated at least four times, read-out: IC50 (50% inhibitory concentration)) [nM]
1 | CC[C@H](C)[C@@H]1NC(=O)CNC(=O)[C@@H](NC(=O)[C@H](Cc2ccc(O)cc2)NC(=O)[C@H](CCCCN)NC(=O)[C@@H](NC(=O)[C@H](Cc2c[nH]cn2)NC(=O)CNC(=O)[C@@H](NC(=O)[C@H](CC(=O)O)NC(=O)[C@H](CCC(=O)O)NC(=O)CN)[C@@H](C)CC)[C@@H](C)CC)CSSC[C@@H](C(=O)N[C@@H](Cc2ccc(O)cc2)C(=O)N[C@@H](CCCCN)C(=O)N[C@@H](CO)C(=O)N[C@@H](CCCCN)C(=O)N[C@@H](CCCCN)C(=O)N2CCC[C@H]2C(=O)N[C@@H](CC(C)C)C(=O)N[C@@H](Cc2ccccc2)C(=O)N[C@@H](CCCCN)C(=O)N[C@H](C(=O)N[C@@H](Cc2c[nH]c3ccccc23)C(=O)N[C@@H](CCCCN)C(=O)N[C@H]2CSSC[C@@H](C(=O)N[C@H](C(=O)N[C@@H](CC(C)C)C(=O)N[C@@H](Cc3c[nH]c4ccccc34)C(=O)N[C@@H](Cc3ccc(O)cc3)C(=O)N[C@@H](CCCCN)C(=O)O)C(C)C)NC(=O)[C@H](C(C)C)NC(=O)[C@H](CC(N)=O)NC(=O)[C@H](CCC(=O)O)NC(=O)[C@H](C(C)C)NC2=O)[C@@H](C)CC)NC(=O)[C@H](CC(=O)O)NC(=O)[C@H](CC(=O)O)NC(=O)[C@H](C(C)C)NC1=O [NCR169-ox1] (H-GEDIGHIKYCGIVDDCYKSKKPLFKIWKCVENVCVLWYK-OH; disulfide 10-16, 29-34) | soluble in all conditions | bound to the DMPG liposomes | retained their conformations under acidic and neutral conditions | Neither NCR169-ox1 nor -ox2 bound | 16 | 410 | 6400 | 128 |  |  |  |  | 
2 | CC[C@H](C)[C@H](NC(=O)[C@H](CCCCN)NC(=O)[C@H](Cc1ccccc1)NC(=O)[C@H](CC(C)C)NC(=O)[C@@H]1CCCN1C(=O)[C@H](CCCCN)NC(=O)[C@H](CCCCN)NC(=O)[C@H](CO)NC(=O)[C@H](CCCCN)NC(=O)[C@H](Cc1ccc(O)cc1)NC(=O)CN)C(=O)N[C@@H](Cc1c[nH]c2ccccc12)C(=O)N[C@@H](CCCCN)C(=O)N[C@H]1CSSC[C@@H](C(=O)N[C@H](C(=O)N[C@@H](CC(C)C)C(=O)N[C@@H](Cc2c[nH]c3ccccc23)C(=O)N[C@@H](Cc2ccc(O)cc2)C(=O)N[C@@H](CCCCN)C(=O)O)C(C)C)NC(=O)[C@H](C(C)C)NC(=O)[C@H](CC(N)=O)NC(=O)[C@H](CCC(=O)O)NC(=O)[C@H](C(C)C)NC1=O [NCR169CL-ox] (H-GYKSKKPLFKIWKCVENVCVLWYK-OH; disulfide 14-19) |  |  |  |  | 0.5 | 140 | 570 | > 128 | bound to DMPG liposomes |  |  |  | 
3 | CC[C@H](C)[C@H](NC(=O)[C@H](CCCCN)NC(=O)CN)C(=O)N[C@@H](Cc1c[nH]c2ccccc12)C(=O)N[C@@H](CCCCN)C(=O)N[C@H]1CSSC[C@@H](C(=O)N[C@H](C(=O)N[C@@H](CC(C)C)C(=O)N[C@@H](Cc2c[nH]c3ccccc23)C(=O)N[C@@H](Cc2ccc(O)cc2)C(=O)N[C@@H](CCCCN)C(=O)O)C(C)C)NC(=O)[C@H](C(C)C)NC(=O)[C@H](CC(N)=O)NC(=O)[C@H](CCC(=O)O)NC(=O)[C@H](C(C)C)NC1=O [NCR169CS-ox] (H-GKIWKCVENVCVLWYK-OH; disulfide 6-11) |  |  |  |  | 64 | 5600 | 45000 | > 128 | bound to DMPG liposomes |  |  |  | 
4 | CC[C@H](C)[C@@H]1NC(=O)CNC(=O)[C@@H](NC(=O)[C@H](Cc2ccc(O)cc2)NC(=O)[C@H](CCCCN)NC(=O)[C@@H](NC(=O)[C@H](Cc2c[nH]cn2)NC(=O)CNC(=O)[C@@H](NC(=O)[C@H](CC(=O)O)NC(=O)[C@H](CCC(=O)O)NC(=O)CN)[C@@H](C)CC)[C@@H](C)CC)CSSC[C@@H](C(=O)N[C@@H](Cc2ccc(O)cc2)C(=O)O)NC(=O)[C@H](CC(=O)O)NC(=O)[C@H](CC(=O)O)NC(=O)[C@H](C(C)C)NC1=O [NCR169N-ox] (H-GEDIGHIKYCGIVDDCY-OH; disulfide 10-16) |  |  |  |  | > 128 |  |  | > 128 | did not | no antimicrobial activity | no antimicrobial activity |  | 
5 | Polymyxin B [PMB, reference compound] |  |  |  |  | 0.031 |  |  | 0.25 |  |  |  | 18 | 92
6 | YKSKKPLFKIWK [NCR169M] |  | bound to DMPG liposomes |  |  | 0.5 | 83 | 240 | 2 |  |  |  |  | 
